Measured values as given in patent EP0489933A1, “BILE ALCOHOL AND DRUG CONTAINING THE SAME AS ACTIVE INGREDIENT” (TSUMURA CO., LTD., priority 1990, dated 1992).

How the values were obtained:
[1] = tested on: male mice of ddY line; test: Blood oxygen and carbon dioxide partial pressure; format: in vivo; conditions: 20 mg/kg, i.p.; blood from abdominal aorta 60 minutes after administration
Method: In this experiment, 4-week-old male mice of ddY line (10 individuals per one group) were used after fasting treatment for 24 hours.
After 60 minutes of the administration of each compound of the present invention, each mouse was subjected to ventrotomy under anesthesia with Nembutal® (Dainabot Co., Ltd.; 50 mg/kg, i.p.) to collect blood from abdominal aorta, and the collected blood sample was immediately checked for its oxygen partial pressure (PO₂) and carbon dioxide partial pressure (PCO₂) using a blood-aerotonometer (Model 170, Ciba-Corning).

[2] = tested on: red blood cells; test: Inhibition of thermal hemolysis of red blood cells; format: cell-based, donryu rats; conditions: 53°C for 20 minutes; for inhibition at 10 µM / inhibition at 50 µM / inhibition at 100 µM / inhibition at 200 µM / inhibition at 500 µM: Rattus norvegicus, Erythrocyte, 20 min, read-out: Hemolysis Inhibition Ratio (%) against Control
Method: Blood was collected from donryu rats of 150 to 200 g in body weight and centrifuged at 1,500 rpm for 5 minutes to obtain red blood cells. The red blood cells thus collected were diluted with 0.15 M phosphate buffer (pH 7.4) to prepare a 5% red blood cell suspension. A 3.8 ml portion of the thus prepared suspension was mixed with 0.2 ml solution of each compound of the present invention which has been adjusted to each level of the concentrations as shown in the following table, and the resulting mixture was shaken thoroughly and incubated at 53°C for 20 minutes. Thereafter, the thus incubated mixture was cooled rapidly with tap water and centrifuged at 3,000 rpm for 15 minutes, and absorbance at 540 nm of the resulting supernatant fluid was measured using a spectrophotometer (Hitachi: Type 200-20). Inhibition rate (%) of red blood cell hemolysis at each concentration of the compound was calculated based on the absorbance, with the results shown in Table 8.

[3] = tested on: male rats of SHR line; test: Blood pressure in SHR rats; format: in vivo; conditions: 10 mg/kg, p.o., 2 weeks
Method: In this experiment, 12-week-old male rats of SHR line (5 to 6 individuals per one group) were used after rearing them for 1 week with normal feed. Oral administration of each test drug has been carried out for 2 weeks and then blood pressure (mmHg) was measured using a small animal hemomanometer (UR-1000).

[4] = tested on: platelet rich plasma (PRP); test: Platelet aggregation in platelet rich plasma after oral administration; format: in vivo, male rat; conditions: 30 mg/kg, p.o., blood 90 minutes after administration
Method: Each drug to be tested was orally administered to each male rat which has been subjected to fasting treatment for 18 to 24 hours. After 90 minutes of the administration, median incision ventrotomy was carried out under ether anesthesia to collect 9 volumes of blood using a syringe filled with 1 volume of 3.8% sodium citrate solution (3.8% sodium citrate solution:blood = 1:9). After thorough mixing, the thus prepared mixture was centrifuged at 800 rpm for 10 minutes at room temperature to collect the resulting supernatant fluid as platelet rich plasma (PRP). The residual portion was centrifuged at 3,000 rpm for 15 minutes at room temperature to collect the resulting supernatant fluid as platelet poor plasma (PPP). The PRP was diluted with the PPP to adjust the number of platelets to 3×10⁵ ± 2×10⁴ cells/µl. A 450 µl portion of the thus diluted PRP was incubated at 37°C for 3 minutes and then mixed with 50 µl of 1×10⁻⁵ M of ADP or 1×10⁻⁵ g/ml of collagen. Thereafter, platelet aggregation test of the mixture was carried out using an aggregometer by measuring transmittance at 940 nm.

[5] = tested on: male mice of ddY line; test: Survival time under hypoxia (aeration with 96% nitrogen and 4% oxygen); format: in vivo; conditions: 50 mg/kg, i.p., 60 minutes before aeration with 96% nitrogen and 4% oxygen; time to respiratory arrest
Method: In this experiment, 5 to 6-week-old male mice of ddY line (10 individuals per one group) were used after fasting treatment for 24 hours.
Each compound obtained in the present invention was administered intraperitoneally. After 60 minutes of the administration, each mouse was transferred separately into a transparent vessel (capacity, 1,000 ml) equipped with an air exit, and the vessel was aerated with a mixed gas consisting of 96% nitrogen and 4% oxygen at an aeration rate of 5 ℓ/min.
All tested mice died within 180 seconds after the commencement of the gas mixture aeration. Terminal respiration was observed several times prior to the respiratory arrest. Survival time of the control group was roughly in the range of from 96 to 111 seconds.

[6] = tested on: erythrocytes; test: Erythrocyte deformability (filtration through 5 µm filter) after oral administration; format: in vivo, male rats of Wistar line; conditions: 30 mg/kg, p.o.; blood collected 90 minutes after administration; number of filtered erythrocytes
Method: In this experiment, 9-week-old male rats of Wistar line (5 to 6 individuals per one group) were used after rearing them for 1 week with normal feed. After 24 hours of fasting, each test drug was administered orally and, 90 minutes thereafter, blood sample was collected from lower abdominal vena cava of each rat under anesthesia with Nembutal® (1 ml/kg, i.p.). Blood samples obtained in this way were checked for their blood clotting time and erythrocyte deformability.
Measuring procedures are as follows.
Erythrocyte deformability ... The collected blood is extruded from a syringe with a constant flow of He in a holder equipped with a filter (5 µm). Weight of blood and the number of erythrocytes filtered during a fixed time are measured and the deformability is expressed based on the number of filtered erythrocytes. The results of these measurements are shown respectively in Tables 11 and 12.

[7] = tested on: rats of diabetes mellitus; test: Blood sugar level in streptozotocin-induced diabetes mellitus; format: in vivo, male rats of Wistar line; conditions: 50 mg/kg, i.o.; administered for 1 week beginning 1 week after streptozotocin (40 mg/kg); serum
Method: In this experiment, 8-week-old male rats of Wistar line (5 individuals per one group) were used after rearing them for 1 week with normal feed. Streptozotocin (40 mg/kg) was administered by tail intravenous injection to obtain rats of diabetes mellitus. Beginning after 1 week of the streptozotocin administration, oral administration of each test drug has been carried out for 1 week, followed by 24 hours of fasting. Thereafter, blood sample was collected from lower abdominal vena cava under anesthesia with Nembutal® (1 ml/kg, i.p.). Serum samples were prepared from the thus collected blood samples and checked for their blood sugar levels, with the results shown in Table 9.

Row | Structure (SMILES) | Carbon Dioxide Partial Pressure [1] [mmHg] | Oxygen Partial Pressure [1] [mmHg] | inhibition at 10 µM ([2]; 0.01 mM) [%] | inhibition at 50 µM ([2]; 0.05 mM) [%] | inhibition at 100 µM ([2]; 0.1 mM) [%] | inhibition at 200 µM ([2]; 0.2 mM) [%] | inhibition at 500 µM ([2]; 0.5 mM) [%] | Blood Pressure ±S.E. Average [3] [mmHg] | Blood Pressure ±S.E. Maximum [3] [mmHg] | Platelet Aggregation Ratio ±S.E. ([4]; ADP (1×10⁻⁵ M)) [%] | Platelet Aggregation Ratio ±S.E. ([4]; Collagen (1×10⁻⁵ g/ml)) [%] | Survival Time ±S.E. [5] [s] | Erythrocyte Deformation: Erythrocyte counts ±S.E. [6] [× 10⁷] | Blood Sugar Level ± S.E. [7] [mg/dL] | Hemolysis Inhibition Ratio (%) against Control ([2]; 0.01 mM) [%] | Hemolysis Inhibition Ratio (%) against Control ([2]; 0.05 mM) [%] | Hemolysis Inhibition Ratio (%) against Control ([2]; 0.1 mM) [%] | Hemolysis Inhibition Ratio (%) against Control ([2]; 0.2 mM) [%] | Hemolysis Inhibition Ratio (%) against Control ([2]; 0.5 mM) [%]
1 | C[C@H](CC[C@H](O)[C@H](C)CO)[C@H]1CC[C@H]2[C@@H]3[C@H](O)C[C@@H]4C[C@H](O)CC[C@]4(C)[C@H]3C[C@H](O)[C@]12C [Example 10, (24S)-(25R) 3α,7α,12α,24,26-pentahydroxy-5β-cholestane] | 42.6 | 87.5 | 24 | 21 | 31 | 44 | 58 | 155 ± 9.5 | 191 ± 7.2 | 42.2 ± 2.33 | 48.3 ± 1.65 | 125.1 ± 3.89 | 4.41 ± 0.54 | 133 ± 3.8 |  |  |  |  | 
2 | C[C@H](CC[C@@H](O)[C@@H](C)CO)[C@H]1CC[C@H]2[C@@H]3[C@H](O)C[C@@H]4C[C@H](O)CC[C@]4(C)[C@H]3C[C@H](O)[C@]12C [Example 11, (24R)-(25S)-3α,7α,12α,24,26-pentahydroxy-5β-cholestane] | 40.5 | 86.1 | 20 | 18 | 30 | 43 | 51 | 141 ± 9.1 | 188 ± 3.8 | 43.3 ± 2.81 | 40.8 ± 1.90 | 121.1 ± 2.60 | 3.95 ± 0.64 | 187 ± 2.5 |  |  |  |  | 
3 | C[C@H](CO)[C@H](O)CC[C@@H](C)[C@H]1CC[C@H]2[C@@H]3[C@H](O)C[C@@H]4C[C@H](O)CC[C@]4(C)[C@H]3C[C@H](O)[C@]12C [Example 12, (24R)-(25R)-3α,7α,12α,24,26-pentahydroxy-5β-cholestane] | 41.1 | 87.1 | 24 | 20 | 33 | 48 | 55 | 138 ± 9.5 | 173 ± 3.6 | 46.5 ± 5.82 | 41.3 ± 3.81 | 118.1 ± 3.33 | 3.80 ± 0.78 | 163 ± 3.8 |  |  |  |  | 
4 | C[C@H](CC[C@@H](O)C(CO)CO)[C@H]1CC[C@H]2[C@@H]3[C@H](O)C[C@@H]4C[C@H](O)CC[C@]4(C)[C@H]3C[C@H](O)[C@]12C [Illustrative Example 1, (24R)-(+)-3α,7α,12α,24,26,27-hexahydroxy-5β-cholestane] | 41.3 | 98.6 | 23 | 20 | 42 | 53 | 80 | 139 ± 8.5 | 205 ± 2.1 | 50.3 ± 1.32 | 43.8 ± 3.99 | 155.4 ± 13.2 | 3.72 ± 0.55 | 177 ± 5.5 |  |  |  |  | 
5 | C[C@H](CC[C@@H](O)CCO)[C@H]1CC[C@H]2[C@@H]3[C@H](O)C[C@@H]4C[C@H](O)CC[C@]4(C)[C@H]3C[C@H](O)[C@]12C [Illustrative Example 2, 27-nor-(24R)-(+)-3α,7α,12α,24,26-pentahydroxy-5β-cholestane] | 42.1 | 85.4 |  |  |  |  |  | 145 ± 8.1 | 200 ± 3.5 | 51.5 ± 1.55 | 44.4 ± 4.51 | 116.3 ± 4.86 | 3.62 ± 0.46 | 171 ± 4.7 | 31 | 23 | 38 | 60 | 71
6 | C[C@H](CC[C@H](O)CCO)[C@H]1CC[C@H]2[C@@H]3[C@H](O)C[C@@H]4C[C@H](O)CC[C@]4(C)[C@H]3C[C@H](O)[C@]12C [Illustrative Example 3, 27-nor-(24S)-(+)-3α,7α,12α,24,26-pentahydroxy-5β-cholestane] | 40.8 | 89.9 |  |  |  |  |  | 141 ± 3.2 | 199 ± 2.6 | 50.3 ± 1.38 | 45.5 ± 2.66 | 109.2 ± 4.77 | 3.81 ± 0.23 | 165 ± 6.6 | 38 | 31 | 22 | 41 | 61
